Results published in US11992557B2, “Collagenase loaded liposomes for enhancing drug delivery” (TECHNION RESEARCH & DEVELOPMENT FOUNDATION LIMITED, priority 2018, dated 2024).

Tests used:
[1] = test system: fluorescein conjugated gelatin substrate
Method: Collagenase activity assay. Collagenase type-I activity was determined using gelatin with fluorescein conjugate as a substrate (ThermoFisher). Collagenase (100 μl) was mixed with 80 μl of reaction buffer (0.05M Tris-HCl, 0.15M NaCl, 5 mM CaCl2, 0.2 mM sodium azide at pH 7.6) and 20 μl of 0.125 mg/ml gelatin diluted in PBS. The fluorescent intensity was measured every 15 seconds over a period of 3 minutes at 485 nm and 530 nm (excitation/emission) using an Infinite 200PRO. Collagenase activity was measured at 37° C., where plasma or PBS served as control.
To test the collagenase activity, liposomal collagenase after dialysis or free collagenase in phosphate buffered saline at a concentration of 5 ug/ml, were incubated at 37° C. Every hour, a collagenase sample was assessed for its capacity to cleave a fluorescein conjugated gelatin substrate (Thermo Fisher). Activity of the released collagenase was determined in accordance to the change in fluorescence over 3 minutes, relative to the fluorescence at t=0.
In order to quantify the protective nature of liposome encapsulation versus free collagenase, both free enzyme and encapsulated enzyme were incubated in PBS or serum and protein activity was measured by Enzcheck Assay at 0, 1, 6 and 24 hours.

PDAC tumors = assay: Effect of the collagenase treatment on pancreatic uptake of Gd-/iodine-liposomes; type: in vivo, C57BL/6 mice; details: PDAC mice, Gd-liposomes after pretreatment
Method: Control groups included injections of empty liposomes (n=10 mice), free collagenase (n=5 mice) or no injection at all (n=3 mice) instead of collagenase encapsulating liposomes. […] 24 hours later, the animals were euthanized, and their organs were harvested. The amount of Gadolinium in each organ was analyzed using elemental analysis (ICP-EOS, Agilent) at wavelengths of 335.048 and 342.246 nm. The organs were harvested, weighed and then burnt at 550° C. overnight. The burnt organs were dissolved in 5 ml of 1% nitric-acid and filtered using […] filters (Millipore Millex-GV, Merck, Darmstadt, Germany). The Gd concentration in the organs was measured using an ICP-EOS elemental analysis.
Micro-CT scan. Mice were imaged using an IVIS Spectrum CT Pre-clinical in-vivo imaging system (PerkinElmer, MA, USA) with the following parameters: CT was set to 50 ms, total projections were 720, voltage was set to 50 kV while the current to 1 mA the binning was determined to 2 and the X-ray filter was set to 440 A1. Hounsfield calibration was performed in air-0.004168 and water-0.5513. Two groups of tumors bearing mice (n=5 each) were divided to control and test group. The mice were weighed weekly and tumor progression was monitored by weekly IVIS scans (PerkinElmer). […] Tumor dimensions were assessed using the ROI tool in the IVIS imaging software (Living Image, PerkinElmer).

Wistar rats = details: rat, in vivo
Method: All rats were anesthetized in two stages. In the first stage the rats were anesthetized with isoflurane. In the second stage each rat was injected a mixture of Ketamine and Xylazine intraperitoneally. After each procedure, the rats were transferred and kept in an incubator, with constant oxygen flow, until they reached full recovery.
An ordinary orthodontic Ni—Ti closed coil spring (9 mm closed coil spring nickel and titanium alloy that has 2 eyelets with an inner radius of 0.76 mm) was used to connect the 1st molar in the upper pallet to the front upper incisors of the rat. The Ni—Ti coil spring was glued to the tooth (3M UNITEK), which generates constant force of 200 grams (1.96 N) when extended between 12-24 mm. The force applied in the oral cavity was the same on all the rats that participated in the experiment. […] The procedure of installing the Ni—Ti coil closed spring was performed using human orthodontics equipment and materials. The 1st upper molar and the upper incisors were dried and cleaned using cotton swabs to remove any debris that accumulates. […]
Collagenase-liposomes (see above Liposome Preparation), or a similar concentration of free collagenase, were applied directly to the sulcus. […] The distance between the eyelet of the Ni—Ti closed coil on the first molar and the back of the upper incisors was measured and recorded using the digital caliper. […]

Collagen type-I bundles = assay: Stress/strength profile of collagen fibers exposed to proteolytic enzymes; type: biochemical, Wistar rats
Method: Stress/strength profile of collagen fibers exposed to collagenase: Collagen type-I bundles, sourced from the tails of Wistar rats, were suspended using a LLOYD LF-Plus Digital Material Tester force machine. The bundles were suspended inside a bath loaded with a buffer that simulates the composition of the oral fluid: an isotonic solution, pH 6.7 at 37° C. complemented with electrolytes including sodium, potassium, calcium, magnesium, bicarbonate, and phosphates. The bundles, 0.8-1.2 mm in diameter, were cut into two equal 4-cm sections, acting as an internal control. Collagenase type-I from Clostridium histolyticum (Sigma-Aldrich) was added at different concentrations and the stress/strength profile of the collagen fibers was recorded as a function of the collagenase treatment. The Ultimate Tensile Strength (UTS) of the collagen bundle was determined for each collagenase concentration.
Collagen regeneration SEM. Collagen bundles were mounted on carbon tape and imaged using a Zeiss UltraPlus high-resolution scanning electron microscope (HR-SEM) equipped with an Everhart-Thornley secondary electron detector. Each bundle was then cut in half. The untreated half acted as an internal control for each treated bundle. All data points are the mean of 14-20 experimental points. Collagen fibers were exposed to 0.05 mg/ml collagenase for 8 hours. Ethylenediaminetetraacetic acid (EDTA; ST. Louis, USA), 3 mM along with two drops of NH4Cl 1M buffer, were added for 30 minutes in order to retard the enzyme's activity. Subsequently, the media was removed, and the treated bundles were washed two times with new growth media to allow bundle regeneration.
Collagen fibers regain their initial mechanical strength post nano-surgery. Collagen fibers were sourced from tails of Wistar rats. Each bundle was cut in half. The untreated half acted as an internal control for each treated bundle. All presented data points are the mean of 14-20 experimental points. Collagen fibers were exposed to collagenase at concentration of 0.05 mg/ml for 8 hours in order to weaken the bundles. […] Subsequently, the media was removed, and the treated bundles were washed twice with new growth media.
Two plant-based proteolytic enzymes were also tested for their ability to relax collagen: bromelain and papain. These plant-based enzymes are not specific to collagen but have been reported to act on collagen fibers. Collagens fiber strength was tested with a force machine in the presence of 1 mg/ml collagenase, bromelain or papain. The force required to break a bundle of fibers with no treatment was set to 1, and the force required to break the treated fiber bundles was standardized to this force. […] At this same time point bromelain and papain reduced the strength of the collagen fibers such that less than 70% of the control force was needed to rupture the fibers. […] Thus, both papain and bromelain served as effective collagen relaxing enzymes, though much weaker ones than […].

[2] = test system: human pterygium transplanted to their eyes; assay: Free collagenase I injection to the conjunctiva of mice with transplanted human pterygium; type: in vivo; details: 10 mg/ml by injection to the conjunctiva
Method: Pterygium is known to comprise four types of collagen: types I, II, III and IV. The stroma of pterygium and normal conjunctival tissue contains collagen types I, II, and […]. To test the ability of collagenase to break up and treat pterygium, mice that had human pterygium transplanted to their eyes were administered 10 mg/ml free collagenase I by injection to the conjunctiva.

fibroblasts = assay: Fibroblast adherence to collagen fibers during collagenase treatment; type: cell-based; details: during collagenase treatment of the fiber
Method: Fibroblast adherence to collagen fibers. The fibroblast morphological change was recorded using The LSM 710-laser scanning confocal microscope (Zeiss) over a period of 90 minutes. The fibroblasts nuclei were stained using Hoechst 33342 (Thermo Fisher Scientific, MA, USA). The Hoechast 16.23 mM stock solution was diluted 1:2000 in Dulbecco's Phosphate Buffer Saline (DPBS, Sigma-Aldrich, St. Louis, USA) and the collagen fiber buffer was removed. 3 ul of the diluted solution was added, followed by 10 minutes light protected incubation. The staining solution was removed, and the fiber was washed 3 times in PBS.

PDAC collagen = assay: Collagen analysis after ex-vivo collagenase treatment of pancreatic tumor slices; set-up: species or system mice; details: PDAC treated with 0.05-0.2 mg/ml collagenase ex-vivo, Masson's trichrome
Method: Collagen analysis after the collagenase treatment. Pancreatic tumors were harvested from tumor bearing mice, six weeks after the initiation of the tumor model. Each tumor was sliced horizontally to 1 cm thick slices. All the extracted slices were mixed and randomly chosen for different treatments groups. Treatments included incubation in DMEM medium (Sigma-Aldrich) with collagenase type-I (Sigma-Aldrich) at increasing concentrations: 0.05, 0.1 or 0.2 mg/ml for either 8 or 24 hours. Following the enzymatic treatment, the tumor slices were sectioned, fixated in 10% formalin (Sigma-Aldrich) and stained with Masson's trichrome. Computerized morphometry was utilized to quantitate the fraction of the fibrotic area out of the total area of the tumor in each sample. Computerized morphometry of the collagen was used to determine fibrosis fraction within each sample. Masson's trichrome staining was performed to identify the pancreatic fibrosis. Then, stained slides were entirely scanned at magnification of X20 using the Panoramic MIDI automatic digital slide scanner (3DHistech, Budapest, Hungary). The whole slide was analyzed in Image Pro Premier 9.2 software (Media Cybernetics, MD, USA). Fibrosis area was calculated according to the blue staining within the tissue, and the tissue area was calculated by choosing the whole tissue with the machine ‘color picker tool’.

[3] = test system: fluorescein conjugated gelatin; assay: Collagenase activity test in various conditions (temperature, ethanol, pH, extrusion pressure); type: biochemical
Method: Collagenase activity assay. Collagenase activity was assessed using fluorescein conjugated gelatin (ThermoFisher) as a substrate. The enzyme solution was added to the substrate solution together with a reaction buffer (0.5 M Tris-HCl, 1.5 M NaCl, 50 mM CaCl2, 2 mM sodium azide, pH 7.6). Fluorescence intensity for every sample was measured every 15 seconds for 3 minutes with excitation set at 485 nm and emission at 530 nm using the Infinite 200 PRO multimode reader (TECAN, Mannedorf, Switzerland). A linear incline was determined, and collagenase concentration was calculated using a calibration curve generated by collagenase samples of known concentrations.
Having established that collagenase's activity drops rapidly at 37 degrees (FIG. 7B), other parameters during liposome production that might affect the protein's integrity and function were examined.
Lastly, the activity of free collagenase at various pH was assayed.

pancreatic tumors = assay: Penetrance of gold nanoparticles after pretreatment of PDAC mice; details: mouse, in vivo
Method: In order to quantify the extent to which encapsulation of collagenase in liposomes improved drug penetrance over free collagenase, PDAC mice were pretreated (intravenous injection twice, 24 hours apart) with empty liposomes, free collagenase or liposome encapsulated collagenase and then 24 hours later gold nanoparticles of various sizes. Specifically, 5, 20, and 100 nm gold nanoparticles were injected and gold penetrance to various organs was monitored 24 hours later. Liposome encapsulated collagenase increased the penetrance of 100 nm (FIG. 6B) and 20 nm (FIG. 6C) gold particles into pancreatic tumors as compared to free collagenase and empty liposomes. […] The experiment was repeated, and more organs/bodily fluids were examined, but similar results were obtained (FIG. 6E-G).

Substance: collagenase
- half-life of collagenase once activated [1]: several hours
- pancreatic uptake by elemental analysis of Gd (PDAC tumors): 15.1 μg-Gd/g-pancreas
- inflammation of the gingival tissue (histology) (Wistar rats): mild inflammation
- force needed to rupture the fibers, standardized to control force (Collagen type-I bundles; 1 mg/ml, 4 hours of treatment): almost no force
- time to degrade the collagen fibers (Collagen type-I bundles; 0.5 and 1 mg/mL collagenase): less than 10 hours
- initial strength profile regained by collagen fibers (Collagen type-I bundles; after the collagenase activity was retarded (16 h)): ~90%
- therapeutic window: fibers relaxed but not fully degraded (Collagen type-I bundles; oral physiological conditions): 0.05 to 0.1 mg/mL
- decrease of collagen fiber strength (Collagen type-I bundles; therapeutic dose of collagenase (0.05 mg/ml, 8 h)): approximately 50%
- effect on the eye [2]: general breakdown of the eye, with extreme inflammation and damage seen throughout the eye
- fibroblast detachment and viability (fibroblasts): fibroblast viability was retained
- level of fibrotic tissue (PDAC collagen): 1.28±0.3%
- activity of free collagenase at various pH [3]: Basic pH was found to result in improved collagenase activity
- activity of free enzyme versus temperature ([3]; 50 degrees or greater): completely abrogated protein function
- activity of free enzyme in ethanol ([3]; as little as 20% ethanol): completely abrogated protein function
- protein activity versus ethanol during liposome production ([3]; ethanol procedure): Inclusion of any amount of ethanol was also found to denature the protein and reduce its activity
- protein activity versus extrusion force ([3]; ethanol procedure): a force above 10 bar during extrusion was found to have a negative effect on protein activity
- protein activity versus temperature during liposome production ([3]; ethanol procedure): temperatures above 25 began reducing protein activity
- penetrance of 5 nm particles into tumors (pancreatic tumors): decreased penetrance
